These results are taken from US20250084084A1, “Crystalline form of (2R)-2-(5-fluoro-2-methoxypyridin-4-yl)-1-[(2S)-7-methyl-6-(pyrimidin-2-yl)-3,4-dihydro-1H-spiro[1,8-naphthyridine-2,3-pyrrolidin]-1-yl]propan-1-one” (Pfizer Inc., priority 2020, published 2025).

For the first assay, the target named is α-melanocyte-stimulating hormone receptor (hMC4R) (Homo sapiens (Human), UniProt P32245). In words: In vitro binding affinity assay using hMC4R (radioligand competition binding, [125I]-(Nle4, D-Phe7)-α-MSH). The conditions noted are these: geometric mean, read-out: Ki (nM) geometric. As to the method: The binding affinity of test compounds at the α-melanocyte-stimulating hormone receptor (hMC4R) was assessed using a radioligand competition binding assay. Recombinant Chinese hamster ovaries (CHO) cells stably expressing hMC4R (PerkinElmer #ES-191-C) were used for competitive binding. hMC4R membranes were grown in Dulbecco's Modified Essential Medium and Ham's F-12 Medium (DMEM/F12), 10% heat inactivated fetal bovine serum (FBS), 0.4 mg/mL Geneticin and 2 mM L-glutamine. Cell membranes were bulked and frozen until the assay was performed.
α-melanocyte-stimulating hormone receptor (hMC4R), sequence (P32245 whole entry): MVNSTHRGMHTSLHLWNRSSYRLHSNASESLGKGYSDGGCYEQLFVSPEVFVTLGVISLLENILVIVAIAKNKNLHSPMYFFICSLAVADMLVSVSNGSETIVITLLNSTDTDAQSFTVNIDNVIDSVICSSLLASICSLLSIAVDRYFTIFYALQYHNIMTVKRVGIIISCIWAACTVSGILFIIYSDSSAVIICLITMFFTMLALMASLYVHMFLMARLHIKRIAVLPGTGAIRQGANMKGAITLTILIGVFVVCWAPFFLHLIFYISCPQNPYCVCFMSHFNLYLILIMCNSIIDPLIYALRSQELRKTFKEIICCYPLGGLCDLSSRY
Compounds were solubilized in 100% dimethyl sulfoxide (DMSO) to a concentration of 30 mM. A 10-point intermediate dilution series using half log dilutions was created in 100% DMSO with a top concentration of 0.03 mM. The serially diluted compounds were spotted as 1 μL/well, in 96-well Costar 3363 plates. The final compound range in the assay was 300 nM to 0.01 nM with a final DMSO concentration of 1%. Control wells, containing 1 μL of 2 mM ([…]) alpha-melanocyte stimulating hormone (α-MSH-Tocris #2584) was added to the non-specific binding wells and 1 μL 100% DMSO for the total binding control wells. […] The exact concentration of radioligand used for each experiment was determined by liquid scintillation counting and adjusted if necessary.
Frozen hMC4R cell membranes were thawed and Dounce homogenized. Homogenates were resuspended in assay buffer to a concentration of 2 μg per well. […] The plates were incubated for 2 hours at room temperature. Assay samples were then rapidly filtered through Unifilter-96 GF/B PEI coated filter plates using a filter plate harvester (PerkinElmer) and rinsed with ice-cold wash buffer [25 mM (4-(2-hydroxyethyl)-1-piperazineethanesulfonic acid (HEPES), 1 mM MgCl2, 2.5 mM CaCl2, and 500 mM NaCl]. Filter plates were dried overnight at room temperature. Plates were then bottom-sealed prior to the addition of 50 μL/well Ultima Gold XR scintillation fluid (PerkinElmer 6013111). Plates were then top-sealed, incubated for 60 minutes at room temperature and then the amount of radioactivity present was determined by liquid scintillation counting on a Microbeta Trilux (PerkinElmer #2450-0060).
The raw data (expressed as counts per minute) were analyzed using ActivityBase (IDBS Data Management Software). […] Equilibrium dissociation constant for inhibitor of ligand and receptor interaction (Ki) values were then calculated from the IC50 values using the Cheng-Prusoff equation: Ki=IC50/(1+([L]/Kd)), where [L] is the concentration of the radioligand used in the experiment and Kd is the affinity of the radioligand (determined in separate saturation experiments).
In general terms: Loss of bound radioactivity is the signal in a displacement assay; it reports binding, not function.
With `COc1cc([C@@H](C)C(=O)N2CC[C@@]3(CCc4cc(Cl)c(C)nc4N3)C2)c(F)cn1` (single isomer, unassigned) [Example 102], the Ki is 110 nM. On to `COc1cc([C@@H](C)C(=O)N2CC[C@@]3(CCc4cc(-c5cnn(C)c5)c(C)nc4N3)C2)c(Cl)cn1` (single isomer, unassigned) [Example 104], for which the Ki is 0.48 nM. On the same count and under the same terms, the value for `Cc1nc2c(cc1-c1nnn(C)n1)CC[C@@]1(CCN(C(=O)[C@H](C)c3ccc(OC(F)F)nc3)C1)N2` (single isomer, unassigned) [Example 107] was 57 nM.

As for `Cc1nc2c(cc1-c1nnn(C)n1)CC[C@@]1(CCN(C(=O)C(C)c3ccc(C(F)(F)F)cc3)C1)N2` (single isomer, unassigned) [Example 109], the Ki is 0.73 nM. With `COc1cc([C@@H](C)C(=O)N2CC[C@@]3(CCc4cc(-c5nc(OC)n(C)n5)c(C)nc4N3)C2)c(F)cn1` (single isomer, unassigned) [Example 112], the Ki stood at 0.78 nM. Regarding `COc1cc([C@@H](C)C(=O)N2CC[C@@]3(CCc4cc(-c5nc(C(F)F)n(C)n5)c(C)nc4N3)C2)nc(C)n1` (single isomer, unassigned) [Example 123], the inhibition constant (Ki) came to 0.22 nM. On the same count and under the same terms, the value for `COc1cc([C@@H](C)C(=O)N2CC[C@@]3(CCc4cc(-c5nnn(C)n5)c(C)nc4N3)C2)ccn1` (single isomer, unassigned) [Example 125] was 3.4 nM; that for `COc1cc([C@@H](C)C(=O)N2CC[C@@]3(CCc4cc(-c5nnn(C)n5)c(C)nc4N3)C2)nc(C(F)F)n1` (single isomer, unassigned) [Example 127] was 0.97 nM; that for `COc1ncc(F)c([C@@H](C)C(=O)N2CC[C@@]3(CCc4cc(-c5nnn(C)n5)c(C)nc4N3)C2)n1` (single isomer, unassigned) [Example 134] was 220 nM. On the same count and under the same terms, the result for `COc1cc([C@@H](C)C(=O)N2CC[C@@]3(CCc4cc(-c5ncccn5)c(C)nc4N3)C2)c(C)cn1` (single isomer, unassigned) [Example 136] reads 1.4 nM. As to `COc1cc(C(C)(F)C(=O)N2CC[C@@]3(CCc4cc(-c5ncccn5)c(C)nc4N3)C2)c(F)cn1` (single isomer, unassigned) [Example 148], the Ki is 12 nM. On the same count and under the same terms, the result for `Cc1nc2c(cc1-c1ncccn1)CC[C@@]1(CCN(C(=O)C(C)c3ccc(F)cc3F)C1)N2` (single isomer, unassigned) [Example 190] reads 2.3 nM; that for `COc1cc(C(C)C(=O)N2CC[C@@]3(CCc4cc(-c5ncccn5)c(C)nc4N3)C2)cc(OC(F)F)n1` (single isomer, unassigned) [Example 192], 0.27 nM; that for `Cc1nc2c(cc1-c1ncccn1)CC[C@@]1(CCN(C(=O)C(C)c3ccnc(OC(F)F)c3)C1)N2` (single isomer, unassigned) [Example 194], 92 nM.

Still in this assay, the particulars now being: geometric mean, read-out: Ki (nM) geometric mean.
As to `COc1cc([C@@H](C)C(=O)N2CCC3(CCc4cc(-c5coc(C)n5)c(C)nc4N3)C2)c(F)cn1` (mixture of isomers) [Example 33, (2R)-2-(5-fluoro-2-methoxypyridin-4-yl)-1-[7-methyl-6-(2-methyl-1,3-oxazol-4-yl)-3,4-dihydro-1H-spiro[1,8-naphthyridine-2,3′-pyrrolidin]-1′-yl]propan-1-one], the Ki was 2.6 nM. Same read-out and setting: the result for `COc1cc([C@@H](C)C(=O)N2CC[C@@]3(CCc4ccc(C)nc4N3)C2)nc(C)n1` (single isomer, unassigned) [Example 23, 2-(6-methoxy-2-methylpyrimidin-4-yl)-1-(7-methyl-3,4-dihydro-1H-spiro[1,8-naphthyridine-2,3′-pyrrolidin]-1′-yl)propan-1-one] reads 21 nM. Still for that read-out and setting: the result for `COc1cc([C@@H](C)C(=O)N2CC[C@@]3(CCc4cc(-c5ncccn5)c(C)nc4N3)C2)c(C(F)(F)F)cn1` (single isomer, unassigned) [Example 40] reads 150 nM; that for `COc1ccc([C@@H](C)C(=O)N2CC[C@@]3(CCc4cc(-c5ncccn5)c(C)nc4N3)C2)cc1F` (single isomer, unassigned) [Example 42], 1.9 nM; that for `Cc1nc(OC(F)F)cc([C@@H](C)C(=O)N2CC[C@@]3(CCc4cc(-c5ncccn5)c(C)nc4N3)C2)n1` (single isomer, unassigned) [Example 44], 54 nM. On the same count and under the same terms, the result for `COc1cc([C@](C)(F)C(=O)N2CC[C@@]3(CCc4cc(-c5ncccn5)c(C)nc4N3)C2)ccn1` (single isomer, unassigned) [Example 46] reads 3.5 nM; that for `Cc1nc2c(cc1-c1ncccn1)CC[C@@]1(CCN(C(=O)[C@H](C)c3ccc(F)c(F)c3)C1)N2` (single isomer, unassigned) [Example 50], 0.81 nM. Turning to `Cc1nc2c(cc1-c1nnn(C)n1)CC[C@@]1(CCN(C(=O)Cc3ccc(C(F)(F)F)cc3)C1)N2` (single isomer, unassigned) [Example 65, 1-[7-methyl-6-(2-methyl-2H-tetrazol-5-yl)-3,4-dihydro-1H-spiro[1,8-naphthyridine-2,3′-pyrrolidin]-1′-yl]-2-[4-(trifluoromethyl)phenyl]ethan-1-one], the Ki came to 1.7 nM. In the case of `Cc1nc2c(cc1-c1nnn(C)n1)CC[C@@]1(CCN(C(=O)Cc3ccc(C(F)(F)F)cc3)C1)N2` (single isomer, unassigned) [Example 66, 1-[7-methyl-6-(2-methyl-2H-tetrazol-5-yl)-3,4-dihydro-1H-spiro[1,8-naphthyridine-2,3′-pyrrolidin]-1′-yl]-2-[4-(trifluoromethyl)phenyl]ethan-1-one], the inhibition constant Ki worked out at 250 nM. On the same count and under the same terms, the value for `Cc1nc2c(cc1-c1ncccn1)CC[C@@]1(CCN(C(=O)[C@H](C)c3cc(N(C)C)ncc3F)C1)N2` (single isomer, unassigned) [Example 81] was 6.6 nM. Still for that read-out and setting: the result for `COc1cc([C@@H](C)C(=O)N2CC[C@@]3(CCc4cc(-c5ncccn5)c(C)nc4N3)C2)cc(OC)n1` (single isomer, unassigned) [Example 83] reads 0.67 nM. On the same count and under the same terms, the value for `Cc1ccc2c(n1)N[C@@]1(CC2)CCN(C(=O)Cc2ccc(F)cc2)C1` (single isomer, unassigned) [Example 87, 2-(4-fluorophenyl)-1-(7-methyl-3,4-dihydro-1H-spiro[1,8-naphthyridine-2,3′-pyrrolidin]-1′-yl)ethan-1-one] was 48 nM.

With `Cc1ccc2c(n1)N[C@@]1(CC2)CCN(C(=O)Cc2ccc(F)cc2)C1` (single isomer, unassigned) [Example 88, 2-(4-fluorophenyl)-1-(7-methyl-3,4-dihydro-1H-spiro[1,8-naphthyridine-2,3′-pyrrolidin]-1′-yl)ethan-1-one], the inhibition constant Ki was more than 2200 nM. The same measure, in the same setting: the result for `COc1cc(OC)cc([C@@H](C)C(=O)N2CCC3(CCc4cc(-c5cnn(C)c5)c(C)nc4N3)C2)c1` (single isomer, unassigned) [Example 90] reads 0.044 nM; that for `COc1cc([C@@H](C)C(=O)N2CC[C@@]3(CCc4cc(-c5nc(C(F)(F)F)n(C)n5)c(C)nc4N3)C2)c(F)cn1` (single isomer, unassigned) [Example 92], 0.45 nM; that for `COc1cc([C@@H](C)C(=O)N2CC[C@@]3(CCc4cc(-c5nc(C(F)(F)F)n(C)n5)c(C)nc4N3)C2)c(Cl)cn1` (single isomer, unassigned) [Example 94], 1.2 nM. On the same count and under the same terms, the result for `COc1cc([C@@H](C)C(=O)N2CC[C@@]3(CCc4ccc(C)nc4N3)C2)c(F)cn1` (single isomer, unassigned) [Example 98] reads 2.8 nM.

Consider `COc1cc([C@@H](C)C(=O)N2CC[C@@]3(CCc4ccc(C)nc4N3)C2)c(Cl)cn1` (single isomer, unassigned) [Example 100], for which the inhibitory constant (Ki) amounted to 1.1 nM. On the same count and under the same terms, the value for `Cc1nc2c(cc1-c1cnn(C)c1)CC[C@@]1(CCN(C(=O)Cc3ccc(F)cc3)C1)N2` (stereo in doubt) [Example 89, 2-(4-fluorophenyl)-1-[7-methyl-6-(1-methyl-1H-pyrazol-4-yl)-3,4-dihydro-1H-spiro[1,8-naphthyridine-2,3′-pyrrolidin]-1′-yl]ethan-1-one] was 1.7 nM; that for `COc1cc([C@@H](C)C(=O)N2CC[C@@]3(CCc4cc(-c5nnn(C)n5)c(C)nc4N3)C2)c(F)cn1` [Example 13, (2R)-2-(5-fluoro-2-methoxypyridin-4-yl)-1-[(2S)-7-methyl-6-(2-methyl-2H-tetrazol-5-yl)-3,4-dihydro-1H-spiro[1,8-naphthyridine-2,3′-pyrrolidin]-1′-yl]propan-1-one] was 0.6 nM.

Usually Ki stands for a measure of affinity in units of concentration, obtained from inhibition or displacement.
